# PubChem BioAssay AID1963980 (Molecular Pharmacology Branch, DTP, NCI, 2024)
# System: 475296-252-R-J1-PDC spheroid viability
# Test: Anticancer human tumor 475296-252-R-J1-PDC patient-derived rectal carcinoma cell line growth inhibition [PI3K]
# Details: spheroids with HUVEC and MSC; for IC50: curve of first compound; for viability, T/C: stronger effect = lower value
# Method in brief: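 Complex 3D spheroids (cancer cells + endothelial HUVEC + mesenchymal stem cells); drug pairs of targeted agent x inavolisib/alpelisib/duvelisib/copanlisib; half-log series from ~Cmax, max 10 microM if Cmax unknown; endpoint viability.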
# [1] = second compound 0.00316 µM, first compound 0.0316 µM
# [2] = second compound 0.00316 µM, first compound 0.1 µM
# [3] = second compound 0.00316 µM, first compound 0.316 µM
# [4] = second compound 0.00316 µM, first compound 1 µM
# [5] = second compound 0.00316 µM, first compound 3.16 µM
# [6] = second compound 0.00316 µM, first compound 10 µM
# [7] = second compound 0.01 µM, first compound 0.0316 µM
# [8] = second compound 0.01 µM, first compound 0.1 µM
# [9] = second compound 0.01 µM, first compound 0.316 µM
# [10] = second compound 0.01 µM, first compound 1 µM
# [11] = second compound 0.01 µM, first compound 3.16 µM
# [12] = second compound 0.01 µM, first compound 10 µM
# [13] = second compound 0.0316 µM, first compound 0.0316 µM
# [14] = second compound 0.0316 µM, first compound 0.1 µM
# [15] = second compound 0.0316 µM, first compound 0.316 µM
# [16] = second compound 0.0316 µM, first compound 1 µM
# [17] = second compound 0.0316 µM, first compound 3.16 µM
# [18] = second compound 0.0316 µM, first compound 10 µM
# [19] = second compound 0.1 µM, first compound 0.0316 µM
# [20] = second compound 0.1 µM, first compound 0.1 µM
# [21] = second compound 0.1 µM, first compound 0.316 µM
# [22] = second compound 0.1 µM, first compound 1 µM
# [23] = second compound 0.1 µM, first compound 3.16 µM
# [24] = second compound 0.1 µM, first compound 10 µM
# [25] = second compound 0.316 µM, first compound 0.0316 µM
# [26] = second compound 0.316 µM, first compound 0.1 µM
# [27] = second compound 0.316 µM, first compound 0.316 µM
# [28] = second compound 0.316 µM, first compound 1 µM
# [29] = second compound 0.316 µM, first compound 3.16 µM
# [30] = second compound 0.316 µM, first compound 10 µM
# [31] = second compound 1 µM, first compound 0.0316 µM
# [32] = second compound 1 µM, first compound 0.1 µM
# [33] = second compound 1 µM, first compound 0.316 µM
# [34] = second compound 1 µM, first compound 1 µM
# [35] = second compound 1 µM, first compound 3.16 µM
# [36] = second compound 1 µM, first compound 10 µM
# 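Further: spheroids exposed to agents for seven days before readout.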
compound,measurement,setting,value
C#Cc1c(F)ccc2cc(O)cc(-c3ncc4c(N5CC6CCC(C5)N6)nc(OCC56CCCN5CC(F)C6)nc4c3F)c12 (centres undefined) + COc1c(OCCCN2CCOCC2)ccc2c3n(c(=NC(=O)c4cnc(N)nc4)nc12)CCN3,IC50,second compound 0.00316 µM,7990 nM
same,IC50,second compound 0.01 µM,2070 nM
same,IC50,second compound 0.0316 µM,875 nM
same,IC50,second compound 0.1 µM,228 nM
same,IC50,second compound 0.316 µM,134 nM
same,IC50,second compound 1 µM,< 31.6 nM
same,"viability, T/C",[1],85.9%
same,"viability, T/C",[2],87.5%
same,"viability, T/C",[3],79.7%
same,"viability, T/C",[4],75.3%
same,"viability, T/C",[5],59.2%
same,"viability, T/C",[6],47.8%
same,"viability, T/C",[7],89.5%
same,"viability, T/C",[8],90.8%
same,"viability, T/C",[9],68%
same,"viability, T/C",[10],57.2%
same,"viability, T/C",[11],48.9%
same,"viability, T/C",[12],39.9%
same,"viability, T/C",[13],80.6%
same,"viability, T/C",[14],76.4%
same,"viability, T/C",[15],65.4%
same,"viability, T/C",[16],46.1%
same,"viability, T/C",[17],31.1%
same,"viability, T/C",[18],14.3%
same,"viability, T/C",[19],67%
same,"viability, T/C",[20],68.9%
same,"viability, T/C",[21],40.7%
same,"viability, T/C",[22],23%
same,"viability, T/C",[23],8.13%
same,"viability, T/C",[24],3.98%
same,"viability, T/C",[25],64.5%
same,"viability, T/C",[26],57.4%
same,"viability, T/C",[27],28.3%
same,"viability, T/C",[28],7.5%
same,"viability, T/C",[29],3.69%
same,"viability, T/C",[30],2.51%
same,"viability, T/C",[31],45.9%
same,"viability, T/C",[32],34.2%
same,"viability, T/C",[33],21.3%
same,"viability, T/C",[34],6.91%
same,"viability, T/C",[35],5.05%
same,"viability, T/C",[36],4.55%
CC1(C)CCC(Nc2ncc(C(F)(F)F)c(-c3c[nH]c4c(P(C)(C)=O)c(C#N)ccc34)n2)CN1 (centres undefined) + COc1c(OCCCN2CCOCC2)ccc2c3n(c(=NC(=O)c4cnc(N)nc4)nc12)CCN3,IC50,second compound 0.00316 µM,> 10000 nM
same,IC50,second compound 0.01 µM,> 10000 nM
same,IC50,second compound 0.0316 µM,> 10000 nM
same,IC50,second compound 0.1 µM,7770 nM
same,IC50,second compound 0.316 µM,5480 nM
same,IC50,second compound 1 µM,1400 nM
same,"viability, T/C",[1],91.7%
same,"viability, T/C",[2],93.5%
same,"viability, T/C",[3],115%
same,"viability, T/C",[4],130%
same,"viability, T/C",[5],147%
same,"viability, T/C",[6],63.2%
same,"viability, T/C",[7],101%
same,"viability, T/C",[8],96%
same,"viability, T/C",[9],112%
same,"viability, T/C",[10],119%
same,"viability, T/C",[11],140%
same,"viability, T/C",[12],52.2%
same,"viability, T/C",[13],85.3%
same,"viability, T/C",[14],86.7%
same,"viability, T/C",[15],95%
same,"viability, T/C",[16],103%
same,"viability, T/C",[17],125%
same,"viability, T/C",[18],56.1%
same,"viability, T/C",[19],79.9%
same,"viability, T/C",[20],85.4%
same,"viability, T/C",[21],91.7%
same,"viability, T/C",[22],82%
same,"viability, T/C",[23],98.5%
same,"viability, T/C",[24],39.4%
same,"viability, T/C",[25],69.1%
same,"viability, T/C",[26],76.8%
same,"viability, T/C",[27],72%
same,"viability, T/C",[28],78.1%
same,"viability, T/C",[29],74.3%
same,"viability, T/C",[30],23.7%
same,"viability, T/C",[31],57.4%
same,"viability, T/C",[32],50.5%
same,"viability, T/C",[33],49.8%
same,"viability, T/C",[34],54.9%
same,"viability, T/C",[35],44.2%
same,"viability, T/C",[36],9.59%
